Laboratory results reported in patent US20050261169A1, “Peptide and peptide mimetic derivatives having integrin inhibitor properties III” (priority 2003, published 2005).

System: mouse MC3T3 E1 osteoblast cultures
Test: Cell adhesion test on RGD-peptide-coated titanium surfaces
Assay type: cell-based
Conditions: 50,000 cells/cm^2 seeded, one hour in serum-free medium at 37° C.; FIG. 2; compared with JAU311003, all concentrations measured
Experimental: Ti or TiAl6V4 moldings having a diameter of 10 mm and a height of 1-2 mm are cleaned.
The moldings are transferred into 48-well plates (Costar, “non-tissue culture treated” Art. No. 3574). For bonding of the bioactive, cell adhesion-promoting molecules B (where B can be a cyclopeptide, peptide mimetic or linear peptide) to the prepared moldings, stock solutions containing B molecules (“B solutions”) are prepared in a final concentration of 1 mM in an aqueous buffer. Concentration series with the “B solution” final concentrations of 1 nM, 10 nM, 100 nM, 1 μM, 10 μM and 100 μM in each case are subsequently prepared by dilution with buffer. The moldings are covered with 250 μl of the respective B solutions in each case and subsequently incubated at room temperature for 18-24 hours. For removal of unbound B molecules, the samples are washed three times with buffer and stored in buffer overnight. […]
The adhesion of mouse MC3T3 E1 osteoblast cultures to RGD-peptide-coated titanium surfaces in vitro was investigated. 50,000 cells/cm^2 were seeded, and the proportion of adhered cells was determined after incubation for one hour in serum-free medium at 37° C./95% atmospheric humidity. • Cell adhesion rate [%]=adhered cells/seeded cells×100 • Peptide: cell adhesion rate [%] • The results can be found in the figures.

Q: “cyclo(Arg-Gly-Asp-D-Phe-Lys(^εNH—[CO—(CH2)5—NH]3—(CO—C6H3(CH2PO3H2)2)) [CD 135]” was tested. Which Cell adhesion rate did it give?
A: higher cell adhesion rate for all concentrations measured
